# Key:
# HT29 cells [1] = assay: qPCR with RealTime Ready Human Apoptosis Panel, 96 in paclitaxel-treated HT29 cells; format: cell-based
# Experimental: (§1) Cells were harvested for RNA isolation after one, two, four and 24 hours. Cell number was determined and portions of 10^6 cells were used for RNA isolation applying the High Pure RNA Isolation Kit following the manufacturer's instruction.
# (§2) From each RNA population 1 μg total RNA was used for cDNA synthesis with the Transcriptor First Strand cDNA Synthesis Kit.
# (§3) The total yield of one cDNA synthesis reaction starting from 1 μg RNA was used as template for each RealTime ready Human Apoptosis Panel, 96 or RealTime ready Human Cell Cycle Panel, 96. Total PCR reaction volume per well was 20 μl with Light Cycler480 Probes Master. The easy-to-use macro for the panel containing PCR protocol, sample setup and analysis was applied on LIGHTCYCLER480 software 1.5.
# (§4) Four time points, one, two, four and twenty four hours were selected for qPCR runs on the LIGHTCYCLER480 system using the RealTime Ready Human Apoptosis Panel, 96 (FIG. 5) and the RealTime Ready Human Cell Cycle Panel, 96 (FIG. 7). Gene names corresponding to the numbers that can be found in the package insert of both panels (Roche Applied Science).
# HT29 cells [2] = assay: Cell Index monitoring (XCELLIGENCE RTCA SP) of HT29 cells treated with paclitaxel; format: cell-based; settings: 50 nM paclitaxel
# Experimental: HT29 cells were cultivated in parallel in McCoy's medium in either T75 cell culture bottles (for RNA isolation) or an E-Plate 96 (for cell growth monitoring) and in three regular microtiter plates (for WST-1 assay).
# The surface of the bottom of a single well of the E-Plate 96 is given with approx. 0.2 cm^2. T75 cell culture bottles have 75 cm^2.
# After 24 hours incubation at 37° C. paclitaxel was added to a final concentration of 50 nM. As the 2 mM paclitaxel stock was dissolved in DMSO, control cells were treated with DMSO to a final concentration of 0.0025%. In addition cells treated with medium only were monitored in parallel.
# All cells were further incubated at 37° C. The growth of the cells was monitored real time on the RTCA SP Station over the whole course of the experiment (FIG. 3).
# To ensure that untreated cells are within the early logarithmic growth phase at the time point of paclitaxel treatment, cells were treated with 50 nM paclitaxel at approx. ⅓ of their maximum Cell Index at 20 hours after seeding.
# HT29 cells [3] = assay: qPCR with RealTime Ready Human Cell Cycle Panel, 96 in paclitaxel-treated HT29 cells; format: cell-based; settings: 50 nM paclitaxel vs DMSO control; time points 1, 2, 4, 24 hours
# Experimental: as §1, §2, §3, §4
# MCF-7 cells [4] = assay: Gene expression profiling by q-RT-PCR (LIGHTCYCLER 480) of Paclitaxel-treated MCF-7 cells; format: cell-based, human
# Experimental: We have performed gene expression profiling experiments of MCF-7 cells treated with Paclitaxel for a period of approximately 150 h. Within this example the gene expression of 20 different genes (gene accession numbers in brackets) were monitored:
# We intended to determine and reproduce gene expression changes with time upon drug treatment, the majority of which had been observed and described before by others in an independent in vivo-study based on DNA microarray technique using ovarian carcinoma xenografts ([…], M., R., et al., Molecular Cancer Therapeutics 3(2) (2004) 111-121; Boschke, C., B., et al., Uni Tubingen (2008)). The time points for our pharmacokinetic screens have been chosen depending on cellular changes in response to Paclitaxel-treatment which were monitored by impedance-based real time cell analysis using the XCELLIGENCE system. Independent from the quality and extent of these cellular changes we harvested non-treated controls and drug-treated cells at their appropriate time points (6, 24, 72 and 147 h), isolated the mRNA by means of the MAGNA PURE System, reverse transcribed the total mRNA into cDNA using a common Thermocycler, pooled and diluted the cDNA samples and amplified the predefined set of specific genes as well as house keeping genes in triplicates by q-RT-PCR making use of the LIGHTCYCLER 480 System. Necessary primer pairs were synthesized and tested for functionality in-house in combination with a bioinformatically determined UPL probe (data not shown). The LIGHTCYCLER software 1.5 allowed the relative quantification of the selected mRNA abundance under Paclitaxel-treated conditions with respect to the corresponding non-treated situation (reference). Results are corrected by the values determined for internal standard genes (stably expressed house keeping genes), like β-Actin, β-Globin and GAPDH. […]
# MCF-7 cells [5] = assay: Impedance-based real time cell analysis (XCELLIGENCE) of MCF-7 cells treated with Paclitaxel; parameters: species or system human; settings: 12.5 nM Paclitaxel
# Description: In this example, we have investigated gene expression profiles of human MCF-7 breast cancer cells (human adenocarcinoma breast cancer cell line) obtained from ATCC (passage number: 15, cell number: 5000 cells per well), maintained in MEM (32360, Gibco)+10% FCS (30-3702, PAN)+Na-Pyruvat (PO4-43100, PAN)+Nonessential amino acids (P08-32100, PAN) at time points that are indicated by changes in cell characteristics as visualized by changes of impedance (cell indices) measurements upon drug addition. Accordingly, gene expression profiles were determined at 6 h, 24 h, 72 h and 147 h upon Paclitaxel administration. […] It includes genes involved in various biological functions such as cell cycle regulation and cell proliferation, apoptosis, signal transduction and transcriptional regulation, fatty acid and sterol metabolism and IFN-mediated signaling (Bani, M., R., et al., Molecular Cancer Therapeutics 3(2) (2004) 111-121). With respect to the two time points (6 h and 24 h upon drug administration) microarray studies had been performed by other groups and we were able to reproduce 70% of their results (Bani, M., R., et al., Molecular Cancer Therapeutics 3(2) (2004) 111-121). In addition, we determined mRNA levels at two additional time points (72 h and 147 h upon drug administration) during prolonged drug exposure of cells.
# Procedure: Seeding, Growth. […]
# 5000 MCF-7 cells were seeded per well and 24 h later treated with a final concentration of 12.5 nM Paclitaxel (dissolved in DMSO). […] The Paclitaxel concentration we applied in this experiment represents twice the IC50-value of this drug for MCF-7 cells and had been determined in an dose-response experiment (Paclitaxel titration) with the XCELLIGENCE system and an appropriate tool of the XCELLIGENCE software SP1.0.0.0807 (data not shown).
smiles,measurement,setting,value
CC(=O)O[C@H]1C(=O)[C@@]2(C)[C@H]([C@H](OC(=O)c3ccccc3)[C@]3(O)C[C@H](OC(=O)[C@H](O)[C@@H](NC(=O)c4ccccc4)c4ccccc4)C(C)=C1C3(C)C)[C@]1(OC(C)=O)CO[C@@H]1C[C@@H]2O [Paclitaxel],number of genes significantly (more than 4 times) up/down regulated,"HT29 cells [1]; 50 nM paclitaxel vs DMSO control, all time points compared",6 genes
same,time of most significant alteration of expression level of apoptosis related genes,"HT29 cells [1]; 50 nM paclitaxel vs DMSO control, time points 1, 2, 4, 24 hours",within the first hour
same,significant gene expression changes compared to DMSO control,"HT29 cells [1]; two and four hours after paclitaxel treatment, 50 nM",no genes show significant expression changes
same,time after treatment to reach minimum Cell Index,HT29 cells [2],approx. 24 hours
same,Cell Index (normalized),HT29 cells [2]; 24 hours after treatment,zero
same,Cell Index change,HT29 cells [2]; within the first hour after treatment,slightly increased
same,time of most dramatic effects on cell cycle gene expression,HT29 cells [3],within the first four hours
same,gene expression changes of investigated genes,"MCF-7 cells [4]; 6 h upon drug addition, 12.5 nM Paclitaxel, vs non-treated",only small changes in expression
same,"gene expression changes of selected genes (e.g. CDKN1A, FOS, PIG8, TOP2A, MADH2)","MCF-7 cells [4]; 24 h after Paclitaxel treatment, 12.5 nM",become more obvious
same,"gene expression changes (ISG15, IFITM1, BNIP3, SLUG, ARF-1, CDC2, PLAB, IDI1)","MCF-7 cells [4]; later stages (72 and 147 h) of Paclitaxel treatment, 12.5 nM",strongest gene expression changes
same,time upon drug addition at which proliferation curve switches from descending to ascending course,MCF-7 cells [5],approximately 20 h
same,course of proliferation curve (impedance / cell index) versus control,MCF-7 cells [5]; control 0.1% DMSO,lower impedance or cell index values
same,time upon drug treatment at which proliferation curve again begins to descend,MCF-7 cells [5]; descent continues up to ca. 150 h,around 70 h

# From patent publication US20100255469A1, “Cell monitoring and molecular analysis” (priority 2008, published 2010)
